Measurements from patent US12319912B2, “MicroRNA expression promoting agent and food or beverage for promoting expression of microRNA” (Kewpie Corporation, priority 2019, dated 2025).

Experiments:
Assay type in all cases: in vivo, nude mice (BALB/c-nu/nu)
Details in all cases: 0.25% (w/w) pterostilbene in feed, MM-231-luc-D3H2LN tumors removed at 21 days, female nude mice
miR-34a = test: Expression level of miR-34a in removed tumors after oral administration of pterostilbene-containing feed (quantitative RT-PCR)
Protocol: (§1) An animal feed for test (pterostilbene-containing powdery animal feed) was prepared by the following method. That is, first, 50 g of corn oil was weighed and heated to 70° C. Pterostilbene was added to the heated corn oil and was dissolved therein. Reagents other than corn oil and pterostilbene (other reagents) were ground in a mortar, and the mixture was mixed. The corn oil in which pterostilbene was dissolved was added to the mixture of other reagents, and the mixture was mixed by sufficiently grinding in a mortar. Subsequently, the mixture was further mixed with a stirrer for about 30 minutes, and thus an animal feed for test was prepared. […]
(§2) At a time point where one week had passed after grouping, the mice in each group were subjected to a cancer cell transplantation experiment. […] Confirmation of whether the cancer cells were transplanted was achieved by leaving the animals for a while after transplantation, intraperitoneally administering a 15 mg/ml luciferin solution (Beetle Luciferin, Potassium Salt, Promega Corporation) in an amount of 150 mg/kg, and measuring cell-derived luminescence (luciferase activity) with IVIS Spectrum (PerkinElmer, Inc.) after about 10 minutes. […] The body weights of the mice were measured in a timely manner. […] Then, luminescence was observed over time with IVIS spectrum every other week from the day of administration initiation. […]

miR-200c = test: Expression level of miR-200c in removed tumors after oral administration of pterostilbene-containing feed (quantitative RT-PCR)
Protocol: as §1, §2

let-7a = test: Expression level of let-7a in removed tumors after oral administration of pterostilbene-containing feed (quantitative RT-PCR)
Protocol: as §1, §2

miR-16 = test: Expression level of miR-16 in removed tumors after oral administration of pterostilbene-containing feed (quantitative RT-PCR)
Protocol: as §1, §2

miR-126 = test: Expression level of miR-126 in removed tumors after oral administration of pterostilbene-containing feed (quantitative RT-PCR)
Protocol: as §1, §2

miR-141 = test: Expression level of miR-141 in removed tumors after oral administration of pterostilbene-containing feed (quantitative RT-PCR)
Protocol: as §1, §2

miR-193b = test: Expression level of miR-193b in removed tumors after oral administration of pterostilbene-containing feed (quantitative RT-PCR)
Protocol: as §1, §2

COc1cc(/C=C/c2ccc(O)cc2)cc(OC)c1 [pterostilbene, Pterostilbene]
promoted: expression of miR-34a as compared to the control group (miR-34a) | expression of miR-200c as compared to the control group (miR-200c) | expression of let-7a as compared to the control group (let-7a) | expression of miR-16 as compared to the control group (miR-16) | expression of miR-126 as compared to the control group (miR-126) | expression of miR-141 as compared to the control group (miR-141) | expression of miR-193b as compared to the control group (miR-193b)
